Paper PMC8955377, “Greener Synthesis of Antiproliferative Furoxans via Multicomponent Reactions” (Molecules, 2022)
Like-named read-outs stand apart in the source and are kept apart here.

Assays:
LNCaP cells = test: Antiproliferative activity, sulforhodamine B assay, LNCaP prostate cancer cells; format: cell-based, human; conditions: 48 h, SRB, mean (±SEM)
Procedure: (§1) In vitro antiproliferative activity of the compounds was determined in cells derived from bladder cancer (T24) and prostate cancer (LNCaP). The cells were incubated in the presence of the compounds for 48 h. The antiproliferative activity was determined using the sulforhodamine B assay. The results were expressed as GI50, which is the drug concentration resulting in a 50% reduction of cellular net growth when compared with the values of untreated control cells. The standard anticancer drug cisplatin was used as a positive control, and furoxan 3 and 11a were also included as ⋅NO donor reference compounds. The results are summarized in Table 2 for the Ugi product 7a, Ugi-Fx (8a) and 8b–g Ugi-furoxan derivatives, and GBB product 10 and 12a–e GBB-furoxan derivatives.
(§2) The T24 cells were grown in McCoy’s 5A (Biological Industries) supplemented with 10% FBS (Capricorn Scientific). The cells were passaged twice per week, and the culture medium was changed with the same frequency. The LNCaP cells were maintained in RPMI media (Biological Industries) supplemented with 10% FBS (Capricorn Scientific) and 10% of its own conditioned medium (complete media). The cells were passaged once per week, and the medium was changed with the same frequency. The HaCaT cells (immortalized human keratinocytes) were cultured in Dulbecco’s modified Eagle medium (Biological Industries) supplemented with 10% FBS (Capricorn Scientific). The cells were passaged twice per week, and the medium was changed with the same frequency. The cell cultures were maintained under a humidified 5% CO2 atmosphere at 37 °C.
(§3) For viability assays, cells were treated with a 0.25% Trypsin–0.05% EDTA solution and plated in 96-well plates in complete medium the day before the experiment. The cells were seeded in a 96-well plate at densities of 8 × 10^3 cells per well for T24 cells, 12.5 × 10^3 cells per well for LNCaP cells, and 10 × 10^3 cells per well for HaCaT cells. The cultures were allowed to attach for 24 h in a humidified 5% CO2 atmosphere at 37 °C. Then, the cells were treated with increasing concentrations of the compounds (0.4–100.0 µM) prepared in complete medium using stock solutions in DMSO and were kept for 48 h in a CO2 incubator. Wells with only media or 0.5% DMSO were added as controls. The antiproliferative activity of the compounds was assayed using the SRB method in at least three independent experiments.

T24 cells [1] = test: Antiproliferative activity, sulforhodamine B assay, T24 bladder cancer cells; format: cell-based, human; conditions: SRB, mean (±SEM)
Procedure: as §1, §2, §3

HaCaT cells [2] = test: Cytotoxicity in non-cancer keratinocytes, sulforhodamine B assay; format: cell-based; conditions: HaCaT human keratinocytes, 0.4–100 µM, SRB; mean (±SEM)
Procedure: As a first approximation of the safety profile of the synthesized compounds and to determine the cytotoxic selectivity against cancer cells, the antiproliferative activity in non-cancer cells was studied. This evaluation was carried out in human keratinocyte HaCaT cells with 0.4–100 µM of the test compounds using the sulforhodamine B assay. The selectivity index (SI) was calculated for these compounds by dividing the GI50 for HaCaT by the GI50 for each cancer cell line. […] The derivatives Ugi-Fx (8a) and 12e stand out, with selectivity indices of 14.5 and 10.8, respectively. […] Concerning the LNCaP prostate cancer cell line, as for the reference drug, no selectivity was observed. […] Therefore, this new GBB-furoxan derivative can be a starting point in the design of new structures with improved selectivity.
as §2, §3

HeLa (Cervix) = tested on: HeLa (Cervix); design: method as in PMID 31356736; conditions: cited from earlier work
T24 cells [3] = test: Antiproliferative activity with hemoglobin (NO scavenger), SRB assay; format: cell-based, human; conditions: Hb 0 or 50 µM 1 h pretreatment, compounds 10 µM, 48 h, Figure 4
Procedure: In this context, we next decided to study the effect of ·NO on their antiproliferative activity against T24 cells after incubation with an ·NO scavenger (Hb, hemoglobin). For this purpose, T24 cells were pretreated for 1 h with 0 or 50 µM of Hb and then the ·NO-donor compounds were added at 10 µM for 48 h. […] However, while for some compounds, such as 8d, ·NO release seems to be crucial for the antiproliferative activity, for others, such as Ugi-Fx (8a), other mechanisms would account for its anticancer effect. It is well-known that the action of 3-phenylsulfonylfuroxan derivatives is connected to ⋅NO release due to their interaction with free intracellular thiols or thiol groups of proteins. However, this action may also involve a covalent bond to thiol biomolecules with the concomitant displacement of the phenylsulfonyl group, leading to a cytotoxic adduct accumulation in the cell milieu. […] Further studies to elucidate the possible mechanisms of action involved will be performed.
To investigate the contribution of ⋅NO to the antiproliferative activity of the studied compounds, we tested their effect on T24 bladder cancer cell growth in the absence and presence of Hb. Cells were seeded into a 96-well plate at 8 × 10^3 cells per well and were allowed to attach for 24 h. […] Then, the antiproliferative activity was assessed by the SRB assay in at least three independent experiments. […]

SW1573 (Lung) = tested on: SW1573 (Lung); design: method as in PMID 31356736; conditions: cited from earlier work
WiDr (Colon) = tested on: WiDr (Colon); design: method as in PMID 31356736; conditions: cited from earlier work
HBL-100 (Breast) = tested on: HBL-100 (Breast); design: method as in PMID 31356736; conditions: cited from earlier work
T-47D (Breast) = tested on: T-47D (Breast); design: method as in PMID 31356736; conditions: cited from earlier work
A549 (Lung) = tested on: A549 (Lung); design: method as in PMID 31356736; conditions: cited from earlier work
HaCaT cells [4] = tested on: HaCaT cells; design: method as in PMID 30489292; conditions: HaCaT human keratinocytes; cited from earlier work

GI50 (LNCaP cells; Homo sapiens) [µM]	GI50 (T24 cells [1]; Homo sapiens, T-24, 48 h) [µM]	Structure (SMILES)	GI50 (HaCaT cells [2]) [µM]	other results
> 100	> 100	Cc1ccc(N(C(=O)c2cccc(O)c2)C(C(=O)NC(C)(C)C)c2ccccc2)cc1 (stereo not drawn) [7a, N-(1-(tert-butylaminocarbonyl)-1-phenylmethyl)-N-(4-methylphenyl)-3-hydroxyphenyl carboxamide]		
13.3	1.83	Cc1ccc(N(C(=O)c2ccccc2Oc2no[n+]([O-])c2S(=O)(=O)c2ccccc2)C(C(=O)NC(C)(C)C)c2ccccc2)cc1 (stereo not drawn) [8b, N-[1-(tert-butylaminocarbonyl)-1-phenylmethyl]-N-(4-methylphenyl)-2-[3-(phenylsulfonyl)-[1,2,5]oxadiazol-4-yl N2-oxide]oxyphenylcarboxamide]	3.78	
18.8	2.18	Cc1ccc(N(C(=O)c2ccc(Oc3no[n+]([O-])c3S(=O)(=O)c3ccccc3)cc2)C(C(=O)NC(C)(C)C)c2ccccc2)cc1 (stereo not drawn) [8c, N-[1-(tert-butylaminocarbonyl)-1-phenylmethyl]-N-(4-methylphenyl)-4-[3-(phenylsulfonyl)-[1,2,5]oxadiazol-4-yl N2-oxide]oxyphenylcarboxamide]	4.62	
21.8	2.1	Cc1ccc(N(CC(=O)NC(C)(C)C)C(=O)c2cccc(Oc3no[n+]([O-])c3S(=O)(=O)c3ccccc3)c2)cc1 [8d, N-(1-(tert-butylaminocarbonyl)methyl)-N-(4-methylphenyl)-3-[3-(phenylsulfonyl)-[1,2,5]oxadiazol-4-yl N2-oxide]oxy phenylcarboxamide]	9.99	
21.8	1.53	CCCCN(C(=O)c1cccc(Oc2no[n+]([O-])c2S(=O)(=O)c2ccccc2)c1)C(C(=O)NC(C)(C)C)c1ccccc1 (stereo not drawn) [8e, N-(1-(tert-butylaminocarbonyl)-1-phenylmethyl)-N-(butyl)-3-[3-(phenylsulfonyl)-[1,2,5]oxadiazol-4-yl N2-oxide]oxyphenylcarboxamide]	11.8	
29.9	2.86	CCCCN(CC(=O)NC(C)(C)C)C(=O)c1cccc(Oc2no[n+]([O-])c2S(=O)(=O)c2ccccc2)c1 [8f, N-(1-(tert-butylaminocarbonyl)methyl)-N-(butyl)-3-[3-(phenylsulfonyl)-[1,2,5]oxadiazol-4-yl N2-oxide]oxyphenylcarboxamide]	11.8	
36.7	1.7	Cc1ccc(N(C(=O)c2ccccc2)C(C(=O)NC(C)(C)C)c2cccc(Oc3no[n+]([O-])c3S(=O)(=O)c3ccccc3)c2)cc1 (stereo not drawn) [8g, N-(1-(tert-butylaminocarbonyl)-1-3-[3-(phenylsulfonyl)-[1,2,5]oxadiazol-4-yl N2-oxide]oxyphenylmethyl)-N-(4-methylphenyl)-phenylcarboxamide]	4.99	
24.5	7.08	O=Cc1cccc(Oc2no[n+]([O-])c2S(=O)(=O)c2ccccc2)c1 [11a, reference compound]	7.83	
24.7	1.76	CC(C)(C)Nc1c(-c2cccc(Oc3no[n+]([O-])c3S(=O)(=O)c3ccccc3)c2)nc2ccccn12 [12a, 4-(3-(3-(tert-butylamino)imidazo[1,2-a]pyridin-2-yl)phenoxy)-3-(phenylsulfonyl)-1,2,5-oxadiazole 2-oxide]	7.44	
7.7	0.85	CC(C)(C)Nc1c(-c2ccccc2Oc2no[n+]([O-])c2S(=O)(=O)c2ccccc2)nc2ccccn12 [12b, 4-(2-(3-(tert-butylamino)imidazo[1,2-a]pyridin-2-yl)phenoxy)-3-(phenylsulfonyl)-1,2,5-oxadiazole 2-oxide]	3.11	GI50 T24 (T24 cells [1]; 48 h): sub-micromolar range
24.2	2.99	CC(C)(C)Nc1c(-c2ccc(Oc3no[n+]([O-])c3S(=O)(=O)c3ccccc3)cc2)nc2ccccn12 [12c, 4-(4-(3-(tert-butylamino)imidazo[1,2-a]pyridin-2-yl)phenoxy)-3-(phenylsulfonyl)-1,2,5-oxadiazole 2-oxide]	5.22	
8.13	2.72	CC(C)(C)Nc1c(-c2cccc(Oc3no[n+]([O-])c3S(=O)(=O)c3ccccc3)c2)nc2cnccn12 [12d, 4-(3-(3-(tert-butylamino)imidazo[1,2-a]pyrazin-2-yl)phenoxy)-3-(phenylsulfonyl)-1,2,5-oxadiazole 2-oxide]	9.84	
16.5	0.83	CC(C)(C)Nc1c(-c2cccc(Oc3no[n+]([O-])c3S(=O)(=O)c3ccccc3)c2)nc2sccn12 [12e, 4-(3-(5-(tert-butylamino)imidazo[2,1-b]thiazol-6-yl)phenoxy)-3-(phenylsulfonyl)-1,2,5-oxadiazole 2-oxide]	9.01	GI50 T24 (T24 cells [1]; 48 h): sub-micromolar range
		N.N.[Cl][Pt][Cl] [Cisplatin, cisplatin, reference compound]	2.51	GI50 (LNCaP cells): 20.3 µM; GI50 (T24 cells [1]; 48 h): 3.28 µM
20.2	0.73	Cc1ccc(N(C(=O)c2cccc(Oc3no[n+]([O-])c3S(=O)(=O)c3ccccc3)c2)C(C(=O)NC(C)(C)C)c2ccccc2)cc1 (stereo not drawn) [Ugi-Fx (8a), N-[1-(tert-butylaminocarbonyl)-1-phenylmethyl]-N-(4-methylphenyl)-3-[3-(phenylsulfonyl)-[1,2,5]oxadiazol-4-yl N2-oxide]oxyphenylcarboxamide]	10.6	GI50 (HeLa (Cervix)): 1.8 µM; Effect of hemoglobin on antiproliferative effect (cell growth inhibition) (T24 cells [3]): high antiproliferative activity even in the presence of a ⋅NO scavenger; GI50 T24 (T24 cells [1]; 48 h): sub-micromolar range; GI50 (SW1573 (Lung)): 0.021 µM; GI50 (WiDr (Colon)): 3 µM; GI50 (HBL-100 (Breast)): 0.23 µM; GI50 (T-47D (Breast)): 1.9 µM; GI50 (A549 (Lung)): 2.3 µM
		O=S(=O)(c1ccccc1)c1no[n+]([O-])c1S(=O)(=O)c1ccccc1 [compound 2, 3,4-bis(phenylsulfonyl)furoxan]		GI50 (HaCaT cells [4]): 1.47 µM
32.5	8.6	O=C(O)c1cccc(Oc2no[n+]([O-])c2S(=O)(=O)c2ccccc2)c1 [compound 3, reference compound]	14.4	
> 100	> 100	CC(C)(C)Nc1c(-c2cccc(O)c2)nc2ccccn12 [compound 10, N-tert-Butyl-2-(3-hydroxyphenyl)imidazo[1,2-a]pyridin-3-amine]		
